From ChEMBL document CHEMBL4342442, “Usnic Acid Enaminone-Coupled 1,2,3-Triazoles as Antibacterial and Antitubercular Agents” (J Nat Prod, 2020)
Activity calls are given as the source filed them. The calls are words filed in the database; no cut-off is given here.

Columns and labels:
[1] = tested on: Mycobacterium tuberculosis; experiment: Antitubercular activity against Mycobacterium tuberculosis H37Rv assessed as reduction in microbial growth after 7 days by alamar blue assay; type: functional; conditions: 168 h
[2] = tested on: Mycobacterium tuberculosis; experiment: Antitubercular activity against Mycobacterium tuberculosis H37Rv assessed as log reduction in bacterial population at 10 ug/ml under starvation condition after 7 days by MPN assay; type: functional
CHO-K1 = experiment: Cytotoxicity against CHOK1 cells assessed as reduction in cell viability after 24 hrs by MTT assay; type: cell-based; conditions: Cricetulus griseus, CHO-K1, 24 h
[3] = Cytotoxicity against HEK cells assessed as reduction in cell viability after 24 hrs by MTT assay; type: cell-based, Homo sapiens
Staphylococcus aureus [4] = experiment: Antibacterial activity against Staphylococcus aureus MTCC 96 assessed as diameter of zone of inhibition at 200 ug/ml after 24 hrs by agar well diffusion method; type: functional
[5] = tested on: Staphylococcus epidermidis; experiment: Antibacterial activity against Staphylococcus epidermidis assessed as diameter of zone of inhibition at 200 ug/ml after 24 hrs by agar well diffusion method; type: functional
Bacillus subtilis [6] = experiment: Antibacterial activity against Bacillus subtilis MTCC 441 assessed as diameter of zone of inhibition at 200 ug/ml after 24 hrs by agar well diffusion method; type: functional; conditions: MTCC 441, 24 h, read-out: DIZ
Escherichia coli [7] = experiment: Antibacterial activity against Escherichia coli MTCC 443 assessed as diameter of zone of inhibition at 200 ug/ml after 24 hrs by agar well diffusion method; type: functional
Pseudomonas aeruginosa [8] = experiment: Antibacterial activity against Pseudomonas aeruginosa MTCC 741 assessed as diameter of zone of inhibition at 200 ug/ml after 24 hrs by agar well diffusion method; type: functional
Klebsiella pneumoniae [9] = experiment: Antibacterial activity against Klebsiella pneumoniae MTCC 618 assessed as diameter of zone of inhibition at 200 ug/ml after 24 hrs by agar well diffusion method; type: functional
Staphylococcus aureus [10] = experiment: Antibacterial activity against Staphylococcus aureus MTCC 96 assessed as reduction in microbial growth after 24 hrs by CLSI based microdilution method; type: functional; conditions: MTCC 96, 24 h
[11] = tested on: Staphylococcus epidermidis; experiment: Antibacterial activity against Staphylococcus epidermidis assessed as reduction in microbial growth after 24 hrs by CLSI based microdilution method; type: functional
Bacillus subtilis [12] = experiment: Antibacterial activity against Bacillus subtilis MTCC 441 assessed as reduction in microbial growth after 24 hrs by CLSI based microdilution method; type: functional; conditions: MTCC 441, 24 h
Escherichia coli [13] = experiment: Antibacterial activity against Escherichia coli MTCC 443 assessed as reduction in microbial growth after 24 hrs by CLSI based microdilution method; type: functional; conditions: MTCC 443, 24 h
Pseudomonas aeruginosa [14] = experiment: Antibacterial activity against Pseudomonas aeruginosa MTCC 741 assessed as reduction in microbial growth after 24 hrs by CLSI based microdilution method; type: functional; conditions: MTCC 741, 24 h
Klebsiella pneumoniae [15] = experiment: Antibacterial activity against Klebsiella pneumoniae MTCC 618 assessed as reduction in microbial growth after 24 hrs by CLSI based microdilution method; type: functional; conditions: MTCC 618, 24 h
[16] = Homo sapiens, HEK293, 24 h, read-out: IC50

SMILES | MIC [1] [µM] | FC [2] | IC50 (CHO-K1) [µM] | IC50 [3, 16] [µM] | diameter of the inhibition zone (DIZ) (Staphylococcus aureus [4]) | diameter of the inhibition zone (DIZ) [5] | zone of inhibition at 200 µg/mL (Bacillus subtilis [6]) [mm] | diameter of the inhibition zone (DIZ) (Escherichia coli [7]) | diameter of the inhibition zone (DIZ) (Pseudomonas aeruginosa [8]) | diameter of the inhibition zone (DIZ) (Klebsiella pneumoniae [9]) | MIC (Staphylococcus aureus [10]) [µM] | MIC [11] [µM] | MIC (Bacillus subtilis [12]) [µM] | MIC (Escherichia coli [13]) [µM] | MIC (Pseudomonas aeruginosa [14]) [µM] | MIC (Klebsiella pneumoniae [15]) [µM] | IC50 [3]
CC(=O)c1c(O)c(C)c(O)c2c1OC1=CC(=O)/C(=C(/C)NCc3cn(CCN4C(=O)c5ccccc5S4(=O)=O)nn3)C(=O)C12C (stereo unspecified) | 2.5 | 2.8 | 12.1 | 91.8 |  |  |  |  |  |  |  |  |  |  |  |  | 
CC(=O)c1c(O)c(C)c(O)c2c1OC1=CC(=O)/C(=C(/C)NCc3cn(CC(=O)c4ccc(F)c(F)c4)nn3)C(=O)C12C (stereo unspecified) | 5.4 | 2.5 | 53.4 | 52 | inactive | inactive | 12 | inactive | inactive | inactive | > 350 | > 350 | 173 | > 350 | > 350 | > 350 | 
CC(=O)c1c(O)c(C)c(O)c2c1OC1=CC(=O)/C(=C(/C)NCc3cn(CC(=O)c4ccc5ccccc5c4)nn3)C(=O)C12C (stereo unspecified) | 5.3 | 2.1 | 67.4 |  | inactive | inactive | 11 | inactive | inactive | inactive | > 350 | > 350 | 169 | > 350 | > 350 | > 350 | Non-Toxic
CC(=O)c1c(O)c(C)c(O)c2c1OC1=CC(=O)/C(=C(/C)NCc3cn(CC(=O)N4CCOCC4)nn3)C(=O)C12C (stereo unspecified) | 22.3 |  | 23.3 | 53.4 | inactive | inactive | 13 | inactive | inactive | inactive | > 350 | > 350 | 90.7 | > 350 | > 350 | > 350 | 
COc1ccccc1N1CCN(C(=O)Cn2cc(CN/C(C)=C3\C(=O)C=C4Oc5c(C(C)=O)c(O)c(C)c(O)c5C4(C)C3=O)nn2)CC1 (stereo unspecified) | 9.5 |  | 40.4 |  | inactive | inactive | 10 | inactive | inactive | inactive | > 350 | > 350 | 305 | > 350 | > 350 | > 350 | Non-Toxic
